Test: gradient 5% acetonitrile 3 min, to 50% in 2 min, to 85% in 15 min, held 3 min, 100 µL/min
Conditions: column: Zorbax Extend-C18 2.1 x 50 mm; eluents: water / acetonitrile, 0.1% formic acid
How it was run: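 Retention times come from adduct peaks that were picked computationally and then checked by hand. The standards, pure and pooled in mixtures of ~100 molecules, were run on a Zorbax Extend-C18 column (2.1 × 50 mm, 1.8 μm) at 100 μL/min with water and acetonitrile, each with 0.1% formic acid. Detection was by quadrupole time-of-flight mass spectrometry in positive and negative ionization mode, with a dead volume of 40 μL and a dwell volume of 900 μL.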
For `COc1ccccc1CNc1ccc(-c2nc(-c3cccc(F)c3)no2)cn1`, the RP-LC retention time was 1230 s.
With `CC(C)Cn1cc(CCNC(=O)c2cc(F)ccc2F)c2cccnc21` the RP-LC retention time was 868 s.
`Cc1ccc(CNC(=O)C2(C)Cn3nc(C(=O)NCc4cccc(C)c4)cc3C(=O)N2C)cc1` (stereo not drawn) gave an RP-LC retention time of 824 s.
In the case of `COc1ccc2[nH]cc(CCNC(=O)c3c(-c4ccccn4)noc3C)c2c1`, the RP-LC retention time is reported as 846 s.
Molecule `Cc1ccccc1CNC(=O)c1sc(-c2cn(C)c3ncccc23)nc1C` has an RP-LC retention time of 928 s.
Molecule `CCNC(=O)C1CCCN1C(=O)Nc1ccccc1` (stereo not drawn) has an RP-LC retention time of 619 s.
`O=C(NC1CCCC1)C1CCCN(c2nc3ccsc3c(=O)n2Cc2ccc(F)cc2)C1` (stereo not drawn) showed an RP-LC retention time of 913 s.
`CN1CCN(CCCNC(=O)C2CCN(c3nc4cccnc4s3)CC2)CC1` gave an RP-LC retention time of 558 s.
`CC(CCc1ccccc1)NC(=O)c1cc2sccc2n1Cc1ccc(F)cc1` (stereo not drawn) showed an RP-LC retention time of 1190 s.
Work on `O=C(COc1ccccc1Cl)NCCCn1nc(-c2ccc(F)cc2)ccc1=O` yielded an RP-LC retention time of 807 s.
`CCOC(=O)c1noc2ncnc(Nc3cc(Cl)ccc3OC)c12` gave an RP-LC retention time of 1080 s.
Work on `COC(=O)COC(=O)c1cn(-c2cccc(Cl)c2)c(=O)c2ccccc12` yielded an RP-LC retention time of 1010 s.
Molecule `CC(C)CCNC(=O)C1CCN(Cc2cc3ccccc3n2Cc2ccccc2Cl)CC1` has an RP-LC retention time of 829 s.
For `CCOc1ccccc1NC(=O)N1C[C@H](c2nc(-c3cccnc3)no2)[C@@H](C)C1`, the RP-LC retention time was 937 s.
`Cc1ccc(Nc2c(-c3ccc(Cl)cc3)nc3cc(C)ccn23)cc1` showed an RP-LC retention time of 807 s.
Work on `Cc1ccc(-c2nc3nc(C)cc(NC(C)C)n3n2)cc1` yielded an RP-LC retention time of 782 s.
In the case of `CCc1cccc(C)c1N(C(=O)Cn1c(COC)nc2ccccc21)C(C)COC` (stereo not drawn), the RP-LC retention time is reported as 850 s.
`COc1ccc(NC(=O)Cn2c(N3CCCC3)nc(C)cc2=O)c(OC)c1` gave an RP-LC retention time of 626 s.
For `CC(=O)Nc1onc(C)c1-c1ccc(C)c(S(=O)(=O)N(C)Cc2ccccc2)c1`, the RP-LC retention time was 905 s.
In the case of `COc1ccc(NC(=O)c2cnc(-c3ccc(F)cc3)nc2-c2ccncc2)cc1`, the RP-LC retention time is reported as 856 s.
In the case of `COc1ccc(OCc2nn3c(-c4ccc(OC)cc4)nnc3s2)cc1`, the RP-LC retention time is reported as 947 s.
`CCc1noc(NC(C)=O)c1-c1ccc(OC)c(S(=O)(=O)Nc2ccc(F)cc2F)c1` gave an RP-LC retention time of 794 s.
In the case of `CCCc1c(C)nc2ncnn2c1N1CCN(c2ccccn2)CC1`, the RP-LC retention time is reported as 583 s.
`Cc1ccnc(SCC(=O)Nc2nc(-c3ccccc3)c(-c3ccccc3)o2)n1` showed an RP-LC retention time of 959 s.
With `O=C(NCc1cc(F)cc(F)c1)C1CCN(c2ccc(SCc3ccccc3)nn2)CC1` the RP-LC retention time was 791 s.
In the case of `COc1cc(OC)c(NC(=O)C2CCN(C(=O)C3Sc4ccccc4NC3=O)CC2)cc1Cl` (stereo not drawn), the RP-LC retention time is reported as 810 s.
For `CCc1nc(OCC(=O)NCc2ccc(N(C)C)cc2)c2c(C)c(C)oc2n1`, the RP-LC retention time was 689 s.
`CN(Cc1ccco1)C(=O)Cn1cccc1-c1nnc(-c2ccccc2)o1` gave an RP-LC retention time of 919 s.
Work on `CC(=O)N1CCc2cc(-c3ccc(C(=O)NCc4ccc5c(c4)OCO5)cc3)ccc21` yielded an RP-LC retention time of 824 s.
`O=c1n(Cc2ccc(Cl)cc2)nc2ccc(S(=O)(=O)N3CCCCC3)cn12` gave an RP-LC retention time of 1000 s.
In the case of `CCOc1ccc(CC(=O)N2CCN(S(=O)(=O)c3cc4c5c(c3)CCC(=O)N5CCC4)CC2)cc1`, the RP-LC retention time is reported as 823 s.
`COc1cccc(-c2cc3c(=O)n(CC(O)c4ccccc4)ccn3n2)c1` (stereo not drawn) showed an RP-LC retention time of 860 s.
Molecule `CC(=O)c1cccc(NC(=O)c2csc3c2CCC(C)C3)c1` (stereo not drawn) has an RP-LC retention time of 997 s.
For `Cc1ccc(S(=O)(=O)N2CCC(c3nc(-c4ccccn4)no3)CC2)cc1C`, the RP-LC retention time was 970 s.
With `CCOC(=O)C1CCN(c2cc3c(cc2NC(=O)NC)n(C)c(=O)n3C)CC1` the RP-LC retention time was 633 s.
Work on `O=C(NCCc1csc(C2CCCN(C(=O)C3CCCCC3)C2)n1)C1CC1` (stereo not drawn) yielded an RP-LC retention time of 760 s.
`CCCN1CCN(C(=O)C2CCCN(c3nnc(C)c4c(C)n(-c5ccccc5)nc34)C2)CC1` (stereo not drawn) gave an RP-LC retention time of 582 s.
In the case of `Cc1cc(-c2nnc(-c3ccccc3)o2)c(C)n1CC(=O)Nc1cc(F)cc(F)c1`, the RP-LC retention time is reported as 747 s.
In the case of `CC(=O)N[C@@H]1CCN(Cc2ccccc2C(F)(F)F)C[C@@H]1CO`, the RP-LC retention time is reported as 574 s.
In the case of `Cc1nccn1CC(=O)N1CCCn2cc(-c3ccccc3F)nc21`, the RP-LC retention time is reported as 644 s.
Work on `COCc1noc(C2CN(C(=O)c3ccc(Cl)s3)CC23CCCC3)n1` (stereo not drawn) yielded an RP-LC retention time of 962 s.
`CC(Oc1cccc(Cl)c1)C(=O)NCC1(C)CCOCC1` (stereo not drawn) showed an RP-LC retention time of 816 s.
Molecule `O=c1c2scc(-c3ccc(Cl)cc3)c2ncn1Cc1cc(=O)n2ccccc2n1` has an RP-LC retention time of 878 s.
With `COc1ccc(CC(=O)Nc2cnn(-c3ncc(N(C)C)cn3)c2)cc1Cl` the RP-LC retention time was 740 s.
In the case of `Cc1ccc(NC(=O)N2CCN(C3=CC4=NC(C)CN4C=N3)CC2)c(C)c1` (stereo not drawn), the RP-LC retention time is reported as 627 s.
`CCS(=O)(=O)N1CCc2ccc(NC(=O)c3cccs3)cc2C1` showed an RP-LC retention time of 747 s.
`O=C(NC1CC1)c1nnc(-c2ccc(S(=O)(=O)N3CCCC3)cc2)o1` showed an RP-LC retention time of 730 s.
`Cc1nc(-c2csc(S(=O)(=O)N3CCCC(C(=O)Nc4ccc(F)cc4C)C3)c2)no1` (stereo not drawn) showed an RP-LC retention time of 892 s.
`CCc1nc(-c2ccc(-c3noc(CN4C(=O)COc5ccc(Cl)cc54)n3)cc2)cs1` gave an RP-LC retention time of 1270 s.
Molecule `CCCCNc1nc(-c2ccc(OC)cc2)nc2ccccc12` has an RP-LC retention time of 807 s.
`COc1ccc(-c2noc(C3CCCN3C(=O)c3cccs3)n2)cc1` (stereo not drawn) gave an RP-LC retention time of 924 s.
For `Cc1noc(-c2cc(=O)n(CC(=O)Nc3cccc(Cl)c3)c3ccccc23)n1`, the RP-LC retention time was 927 s.
`CC(=O)N1c2ccc(S(=O)(=O)N3CCCCC3)cc2CC1C(=O)Nc1c(C)cc(C)cc1C` (stereo not drawn) showed an RP-LC retention time of 955 s.
`Cn1cnc2c(C(=O)Nc3ccc(Cl)cc3)nn(-c3ccccc3)c2c1=O` gave an RP-LC retention time of 954 s.
`CCOc1nc2ccccc2nc1N1CCCC(C(=O)Nc2ccc(Br)c(C)c2)C1` (stereo not drawn) showed an RP-LC retention time of 1420 s.
With `Cc1ccnc(OCC(=O)Nc2cc(C)on2)n1` the RP-LC retention time was 612 s.
In the case of `O=C(NCc1ccc(F)cc1)N1CCC(c2noc(-c3ccccn3)n2)C1` (stereo not drawn), the RP-LC retention time is reported as 813 s.
`Cc1[nH]c2ccccc2c1C(=O)C(=O)Nc1ccc2c(c1)OCO2` gave an RP-LC retention time of 782 s.
With `COc1ccc(CC(=O)N2C[C@@H]3C[C@H]2C[C@@H]3NC(=O)c2cccnc2)cc1Cl` the RP-LC retention time was 614 s.
`CN(C(=O)C1CCCN(c2ncnc3c2nc2n3CCCCC2)C1)c1ccccc1` (stereo not drawn) gave an RP-LC retention time of 766 s.
With `CC1(C(=O)NCc2ccccc2)CCN(S(=O)(=O)c2ccc(C3CCCCC3)cc2)CC1` the RP-LC retention time was 1230 s.
With `O=C(NC1CCCCC1)c1ccn[nH]1` the RP-LC retention time was 642 s.
`Cn1c(SCC(=O)c2ccc(F)cc2)nnc1-c1ccncc1` gave an RP-LC retention time of 620 s.
With `O=C(CC(c1ccccc1)c1ccccc1)NCC(O)c1cccs1` (stereo not drawn) the RP-LC retention time was 809 s.
For `CCc1nc(-c2csc(S(=O)(=O)N3CCC(C(=O)Nc4ccc(Cl)cc4F)CC3)c2)no1`, the RP-LC retention time was 1060 s.
With `Cc1ccc(C)c(CN2C[C@@H]3C(=O)N(C)C(=O)[C@@H]3C2)c1` the RP-LC retention time was 611 s.
With `Cc1ccc(-n2c(=O)c3c(cc(C)n3C)n(CC(=O)Nc3ccc(F)cc3)c2=O)cc1` the RP-LC retention time was 800 s.
In the case of `COc1cc(OC)c(NC(=O)N2CCc3cn(C)c4cccc(c34)C2)cc1Cl`, the RP-LC retention time is reported as 887 s.
`O=C(c1ccn2c(-c3ccccc3Br)nnc2c1)N1CCN(c2ccccn2)CC1` gave an RP-LC retention time of 555 s.
Work on `CCOCCCNC(=O)C1CCCN(c2ncc(-c3cccc(F)c3)cn2)C1` (stereo not drawn) yielded an RP-LC retention time of 902 s.
For `Cc1nc(N2CCOCC2)c2c(C(=O)Nc3cc(Cl)ccc3C)c(C)oc2n1`, the RP-LC retention time was 869 s.
With `Cc1ccc(S(=O)(=O)N2C(=O)CCC2C(=O)NC2CCC(C)CC2)cc1` (stereo not drawn) the RP-LC retention time was 958 s.
`N#CCn1cccc(S(=O)(=O)N2CCCCCC2)c1=O` showed an RP-LC retention time of 737 s.
Molecule `Cc1ccc(Sc2nccnc2N2CCCC(C(=O)N3CCN(c4ccc(F)cc4)CC3)C2)cc1` (stereo not drawn) has an RP-LC retention time of 1230 s.
`CCc1ccccc1NC(=O)N1CC(n2cc(COCC3CC3)nn2)C1` showed an RP-LC retention time of 725 s.
Molecule `O=C(NCc1ccc(F)cc1)C1CCN(c2cncnc2N2CCCC2)CC1` has an RP-LC retention time of 659 s.
`O=C(CN1C(=O)NC2(CCCCC2)C1=O)Nc1cc(F)ccc1F` showed an RP-LC retention time of 779 s.
`Cc1ccc(-n2c(=O)n(CC(=O)NCCN3CCCCC3)c3cccnc32)cc1` gave an RP-LC retention time of 616 s.
Work on `CNC(=O)[C@@H]1CN(C(=O)CCc2cc(OC)no2)C[C@H]1c1n[nH]c(C)n1` yielded an RP-LC retention time of 553 s.
For `CC(C)n1cnc(S(=O)(=O)N2CCC(C(=O)N3CCN(c4ccc(Cl)cc4)CC3)CC2)c1`, the RP-LC retention time was 865 s.
`CCC1=C(c2ccc(C)cc2)S(=O)(=O)N=C1N1CCC(C(=O)NC(C)Cc2ccco2)CC1` (stereo not drawn) gave an RP-LC retention time of 894 s.
For `Cc1ccc(CNC(=O)N2CC(n3cc(COc4ccc(F)cc4)nn3)C2)cc1`, the RP-LC retention time was 821 s.
For `O=C(CCc1c[nH]c2ccccc12)N1CCN(C(=O)c2cc(-c3cccnc3)n[nH]2)CC1`, the RP-LC retention time was 814 s.
With `O=C(CSc1nnc(-c2cccnc2)o1)c1ccc2c(c1)OCCO2` the RP-LC retention time was 715 s.
In the case of `O=C(Nc1cnc(-c2cccc(Cl)c2)nc1)c1ccc(Br)o1`, the RP-LC retention time is reported as 1140 s.
Molecule `O=C(NC1CCN(c2cc(-c3cccs3)[nH]n2)C1)c1ccc(F)cc1Cl` (stereo not drawn) has an RP-LC retention time of 726 s.
Work on `CN(CCNC(=O)C1CCCN(c2ncnc3c2nc2n3CCCCC2)C1)Cc1ccccc1` (stereo not drawn) yielded an RP-LC retention time of 623 s.
Molecule `O=C(Cc1ccc(NC(=O)CSCc2ccccc2)cc1)NCC(F)(F)F` has an RP-LC retention time of 801 s.

Source: the METLIN SMRT retention time set (Domingo-Almenara et al. 2019)
